Experimental data: patent US7166622B2, “Substituted phenylsulfonamide inhibitors of beta amyloid production” (Wyeth, priority 2002, dated 2007)

Experiments:
beta amyloid production = experiment: Repressor Release Assay (RRA); assay type: cell-based; settings: Conc 10 μg/ml; for fold induction at 10 µg/mL: read-out: APPI Fold Increase
Outline: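 Read-out is luciferase luminescence (RLU) after 36-48 h duplicate compound exposure of transfected CHO-K1 cells. These cells carry transiently introduced APP-lacI and pRSVO-luc DNA. Diluent control was 25 mM Hepes/1% DMSO; toxicity recorded as binary score (1 non-toxic, 0 toxic).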

CHO-K1 cells = experiment: Toxicity in RRA (loss of luciferase signal); settings: Conc 10 μg/ml; toxicity = loss of signal (<0.75 fold increase)
Procedure: The beta amyloid inhibitory activity of the compounds of the present invention was determined using the Repressor Release Assay (RRA).
“Fold Increase” refers to the amount of luciferase activity (measured in relative light units) over diluent control. “SEM” refers to the standard error of the mean for fold increase.

[1] = luciferase activity over diluent control

| Compound | APPI Fold Increase (beta amyloid production; [1]) | APPI % of Example #98 (beta amyloid production; relative to Example 98) | (%)APPI Toxicity (CHO-K1 cells) | fold induction at 10 µg/mL (beta amyloid production; [1]) |
| --- | --- | --- | --- | --- |
| CC[C@H](C)[C@H](NS(=O)(=O)c1ccc(Cl)cc1)C(O)c1ccc(SC)cc1 (stereo partly drawn) [Example 182, 4-chloro-N-((1S,2S)-1-{hydroxy[4-(methylsulfanyl)phenyl]methyl}-2-methylbutyl) benzenesulfonamide] | 2.58 fold | 122.24% | 1 (1=non-toxic) |  |
| CC[C@H](C)[C@H](NS(=O)(=O)c1ccc(Cl)cc1)C(O)c1ccc(N(C)C)cc1 (stereo partly drawn) [Example 183, 4-chloro-N-{(1S,2S)-1-[[4-(dimethylamino)phenyl](hydroxy)methyl]-2-methylbutyl}benzenesulfonamide] |  |  | 1 (1=non-toxic) | 4.49 |
| CC[C@H](C)[C@H](NS(=O)(=O)c1ccc(Cl)cc1)C(O)c1cccc2ccccc12 (stereo partly drawn) [Example 184, 4-chloro-N-{(1S,2S)-1-[hydroxy(1-naphthyl)methyl]-2-methylbutyl}benzenesulfonamide] |  |  | 1 (1=non-toxic) | 1.7 |
| CC[C@H](C)[C@H](NS(=O)(=O)c1cccc(Cl)c1)C(C)O (stereo partly drawn) [Example 185, 3-chloro-N-[(1S,2S)-1-(1-hydroxyethyl)-2-methylbutyl]benzenesulfonamide] |  |  | 1 (1=non-toxic) | 1.51 |
| CC[C@H](C)[C@H](NS(=O)(=O)c1cccc(Cl)c1)C(O)C1CCCC1 (stereo partly drawn) [Example 186, 3-chloro-N-{(1S,2S)-1-[cyclopentyl(hydroxy)methyl]-2-methylbutyl}benzenesulfonamide] |  |  | 1 (1=non-toxic) | 3.86 |
| CCCCCCC(O)[C@@H](NS(=O)(=O)c1cccc(Cl)c1)[C@@H](C)CC (stereo partly drawn) [Example 187, 3-chloro-N-{(1S)-2-hydroxy-1-[(1S)-1-methylpropyl]octyl}benzenesulfonamide] |  |  | 1 (1=non-toxic) | 9.02 |
| CCCCCC(O)[C@@H](NS(=O)(=O)c1cccc(Cl)c1)[C@@H](C)CC (stereo partly drawn) [Example 188, 3-chloro-N-{(1S)-2-hydroxy-1-[(1S)-1-methylpropyl]heptyl}benzenesulfonamide] |  |  | 1 (1=non-toxic) | 3.54 |
| CCCCC(O)[C@@H](NS(=O)(=O)c1cccc(Cl)c1)[C@@H](C)CC (stereo partly drawn) [Example 189, 3-chloro-N-{(1S)-2-hydroxy-1-[(1S)-1-methylpropyl]hexyl}benzenesulfonamide] |  |  | 1 (1=non-toxic) | 1.51 |
| CC[C@H](C)[C@H](NS(=O)(=O)c1cccc(Cl)c1)C(O)C(C)C (stereo partly drawn) [Example 190, 3-chloro-N-{(1S)-2-hydroxy-3-methyl-1-[(1S)-1-methylpropyl]butyl}benzenesulfonamide] |  |  | 1 (1=non-toxic) | 1.76 |
| CC[C@H](C)[C@H](NS(=O)(=O)c1cccc(Cl)c1)C(O)C(C)(C)C (stereo partly drawn) [Example 191, 3-chloro-N-{(1S)-2-hydroxy-3,3-dimethyl-1-[(1S)-1-methylpropyl]butyl}benzenesulfonamide] |  |  | 1 (1=non-toxic) | 2.42 |
| CC[C@H](C)[C@H](NS(=O)(=O)c1cccc(Cl)c1)C(O)CC(C)C (stereo partly drawn) [Example 192, 3-chloro-N-{(1S)-2-hydroxy-4-methyl-1-[(1S)-1-methylpropyl]pentyl}benzenesulfonamide] |  |  | 1 (1=non-toxic) | 2.21 |
| C=CC(O)[C@@H](NS(=O)(=O)c1cccc(Cl)c1)[C@@H](C)CC (stereo partly drawn) [Example 193, 3-chloro-N-{(1 S)-2-hydroxy-1-[(1S)-1-methylpropyl]-3-butenyl}benzenesulfonamide] |  |  | 1 (1=non-toxic) | 1.78 |
| C=CCC(O)[C@@H](NS(=O)(=O)c1cccc(Cl)c1)[C@@H](C)CC (stereo partly drawn) [Example 194, 3-chloro-N-{(1S)-2-hydroxy-1-[(1S)-1-methylpropyl]-4-pentenyl}benzenesulfonamide] |  |  | 1 (1=non-toxic) | 3.42 |
| CCC(O)[C@@H](NS(=O)(=O)c1cccc(Cl)c1)[C@@H](C)CC (stereo partly drawn) [Example 195, 3-chloro-N-{(1S)-2-hydroxy-1-[(1S)-1-methylpropyl]butyl}benzenesulfonamide] |  |  | 1 (1=non-toxic) | 2.16 |
| CC[C@H](C)[C@H](NS(=O)(=O)c1cccc(Cl)c1)C(O)c1ccc(Cl)cc1 (stereo partly drawn) [Example 196, 3-chloro-N-{(1S,2S)-1-[(4-chlorophenyl)(hydroxy)methyl]-2-methylbutyl}benzenesulfonamide] |  |  | 1 (1=non-toxic) | 1.78 |
| CC[C@H](C)[C@H](NS(=O)(=O)c1cccc(Cl)c1)C(O)C=C(C)C (stereo partly drawn) [Example 197, 3-chloro-N-{(1S)-2-hydroxy-4-methyl-1-[(1S)-1-methylpropyl]-3-pentenyl}benzenesulfonamide] |  |  | 1 (1=non-toxic) | 1.54 |
| CC[C@H](C)[C@H](NS(=O)(=O)c1cccc(Cl)c1)C(O)c1ccc(OC)cc1 (stereo partly drawn) [Example 198, 3-chloro-N-{(1S,2S)-1-[hydroxy(4-methoxyphenyl)methyl]-2-methylbutyl}benzenesulfonamide] |  |  | 1 (1=non-toxic) | 1.54 |
| CC[C@H](C)[C@H](NS(=O)(=O)c1cccc(Cl)c1)C(O)CCC1OCCCO1 (stereo partly drawn) [Example 199, 3-chloro-N-{(1S)-4-(1,3-dioxan-2-yl)-2-hydroxy-1-[(1S)-1-methylpropyl]butyl}benzenesulfonamide] |  |  | 1 (1=non-toxic) | 1.61 |
| C=CCCC(O)[C@@H](NS(=O)(=O)c1cccc(Cl)c1)[C@@H](C)CC (stereo partly drawn) [Example 200, 3-chloro-N-{(1S)-2-hydroxy-1-[(1S)-1-methylpropyl]-5-hexenyl}benzenesulfonamide] |  |  | 1 (1=non-toxic) | 1.85 |
| CC[C@H](C)[C@H](NS(=O)(=O)c1cccc(Cl)c1)C(O)c1ccc(SC)cc1 (stereo partly drawn) [Example 201, 3-chloro-N-((1S,2S)-1-{hydroxy[4-(methylsulfanyl)phenyl]methyl}-2-methylbutyl)benzenesulfonamide] |  |  | 1 (1=non-toxic) | 2.45 |
| CCCCCCC(O)[C@@H](NS(=O)(=O)c1ccccc1F)[C@@H](C)CC (stereo partly drawn) [Example 203, 2-fluoro-N-{(1S)-2-hydroxy-1-[(1S)-1-methylpropyl]octyl}benzenesulfonamide] |  |  | 1 (1=non-toxic) | 3.47 |
| CCCCCC(O)[C@@H](NS(=O)(=O)c1ccccc1F)[C@@H](C)CC (stereo partly drawn) [Example 204, 2-fluoro-N-{(1S)-2-hydroxy-1-[(1S)-1-methylpropyl]heptyl}benzenesulfonamide] |  |  | 1 (1=non-toxic) | 3.73 |
| CCCCC(O)[C@@H](NS(=O)(=O)c1ccccc1F)[C@@H](C)CC (stereo partly drawn) [Example 205, 2-fluoro-N-{(1S)-2-hydroxy-1-[(1S)-1-methylpropyl]hexyl}benzenesulfonamide] |  |  | 1 (1=non-toxic) | 1.72 |
| C=CC(O)[C@@H](NS(=O)(=O)c1ccccc1F)[C@@H](C)CC (stereo partly drawn) [Example 206, 2-fluoro-N-{(1S)-2-hydroxy-1-[(1S)1-methylpropyl]-3-butenyl}benzenesulfonamide] |  |  | 1 (1=non-toxic) | 1.9 |
